How the values were obtained:
mitochondria = experiment: QSLR factorial logistic regression of mitochondrial localization (affinity coefficients, cross-validated prediction); parameters: species or system human; conditions: for αi^mito: influence of A group on mitochondrial localization, greater = stronger; for estimated A group affinity coefficient ai: mitochondrial affinity, ±5 for groups always or never mitochondrial
From the text: The first column and first row contain the A group and B group labels. The second column and second row contain the estimated A group and B group affinity coefficients (ai and bj respectively). The interior of the table contains the value sij=ai+bj for each compound (where positive values of sij indicate predicted localization to mitochondria, and negative values of sij indicate predicted localization to a non-mitochondrial compartment). The subscript m indicates experimentally determined mitochondrial localization. The subscript o indicates experimentally determined non-mitochondrial localization. The darkened boxes indicate correctly predicted mitochondrial localizations under cross-validation.
Based on this matrix, factorial logistic regression (See, A. Agresti, Categorical Data Analysis, Wiley [2002]) was used to calculate mitochondrial affinity coefficients (ai and bj) for each A and B moiety. (Table 1). Since it is not necessary to observe all possible pairings between A and B building blocks to estimate the affinity coefficients, the QSLR approach can predict localization of unmeasured styryl molecules based on a minimal set of experimentally-determined localizations (see Methods). The methods of the present invention allow assessment of predictivity using the cross-validation technique by holding out one compound and fitting the affinity coefficients using the remaining compounds, predictivity can be assessed by comparing the actual localization of the held-out compound to its predicted localization. Repeating this for every measured compound in the library yields an error rate for the procedure.
Briefly, this technique assigns quantitative scores to each A group (αi^mito) and to each B group (βj^mito), in such a way that αi^mito+βj^mito is positive for compounds with mitochondrial localization, and is negative for compounds lacking mitochondrial localization. […] In additional embodiments, same analysis can be applied to organelles other than mitochondria, provided there are a sufficient number of localizations to specific non-mitochondrial organelles in the combinatorial library of interest for reliable statistical calculations.
In certain embodiments, the predictive performance of the above method was assessed using a cross-validation approach by calculating the proportion of all compounds that are correctly predicted. For cross-validation, each styryl product was set aside in sequence, and the factorial logistic model was fit to the remaining data. Then the resulting A and B scores for the held-out compound were summed. If the sum was positive, the held-out compound was predicted to be mitochondrial, while if the sum was negative, the held-out compound was predicted to be non-mitochondrial. […] The baseline performance of the method scored 104 correct out of 145, or 72%. This number is highly statistically significant compared to random guessing (p-value ˜10^−7). Thus, across the entire library, A and B moieties appear to contribute to localization in an independent, additive fashion.
In some embodiments, subcellular localization data were converted to binary (0/1) values by assigning a value Gij=1 if compound i,j localized to mitochondria (even if it localized to other […] as well), and assigning Gij=0 if compound i,j localized exclusively to any non-mitochondrial cellular structure. Compounds with no localization were omitted from this part of the analysis. The αi and βj coefficients for A or B groups that are always observed to localize to mitochondria, or that never localize to mitochondria, were set to +/−5, respectively. The binary localization data were analyzed using factorial logistic regression. […]

[1] = Additive decomposition of peak excitation and emission wavelengths (model coefficients of A and B groups); conditions: for αi^em: influence of A group on peak emission wavelength; for αi^em / αi^ex: A group 1 as baseline; for αi^ex: influence of A group on peak excitation wavelength
From the text: The chemical structure of the styryl library is illustrated in FIG. 3. […] Initial analysis focused on measurements of peak emission and excitation wavelength obtained for all styryl products showing a single, localized peak (there were 256 such compounds for emission wavelength, and 193 compounds for excitation wavelength). […] The wavelength for the styryl compound formed by joining A group i with B group j is denoted as λij (or more specifically, λij^ex for excitation wavelength and λij^em for emission wavelength). The additive model λij=ai+βj+εij was fit to the data using least squares yielding parameters αi^ex, αi^em, βj^ex, and βj^em that quantify the influence of each A and B group on the spectrum of the styryl product. […] (FIGS. 8A-8B). […] The predictions were made ignoring interactions between the two functional moieties in the styryl compound. The predicted values were obtained without bias, by holding out the data point to be predicted when training the model.
In preferred embodiments, using the cross-validation approach disclosed herein, each compound was held out in sequence, the model was trained using the remaining compounds, then the wavelength value for the held-out compound was predicted based on the resulting fitted model. This process produced correlations between measured and predicted values of ρ^em=0.78 (emission) and ρ^ex=0.69 (excitation).
Based on this analysis, the contribution of the A and B functional groups to the fluorescence of the styryl product is quantified using the fitted coefficients αi^ex, βj^ex, […], and βj^em. Since these coefficients are on a scale without origin, in some embodiments, the invention uses the first A group and B group as a baseline, so […], β1^ex=0, and so on. Table 3 contains the model coefficients of all A and B groups for peak excitation and emission wavelength.
Greater values of αi^ex, αi^em, βj^ex, and βj^em indicate greater peak wavelength. Greater values of αi^mito and […] indicate stronger mitochondrial localization. A groups 40 and 41 were not screened for localization. A groups 2, 29, and 33 only formed fluorescent products with a single B group, so were not included in the spectral analysis.
In some embodiments, the wavelength values for peak excitation and emission were fit to the additive model λij=αi+βj+εij, where εij denotes error that is made as small as possible in the fitting process. Using least squares to minimize the function [formula] over all compounds having experimental data yields coefficient estimates αi for each A group and βj for each B group. One set of coefficient estimates is obtained for the excitation values and another set is obtained for the emission values. To predict the wavelength of a new compound formed from A and B groups i* and j* the sum αi*+βj* is used.
In some embodiments, for both the spectral and localization analysis, cross-validation was used to obtain unbiased estimates of the prediction performance. Each compound was held out in sequence, and the coefficients αi and βj were fit to the remaining compounds. These values were then used to form a prediction for the held out compound, then the predicted and experimental values were compared to obtain a measure of the accuracy of prediction. Since the wavelength values are on a continuous scale, the predicted values were compared to the experimental values using Pearson correlation coefficients. The localization values are dichotomous, so the proportion of matching predictions was used to compare predicted and experimental localization values.

HeLa cells = experiment: Kinetic imaging of NBD-triazine probe uptake and sequestration, fitted to nested two-compartment transport model; format: cell-based; conditions: median over optimal solutions within 5% of the best fit
Experimental: In living cells, image data was simultaneously acquired with an automated, high-content, kinetic screening instrument equipped with an environmental chamber (see, e.g., V. C. Abraham, D. L. Taylor and J. R. Haskins, Trends in Biotechnology 22, 15 (2004); herein incorporated by reference in its entirety), as cells were incubated with the fluorescent molecules and after removal of extracellular probe. Data was analyzed off line, using an image analysis algorithm to measure the statistical pixel intensity distribution associated with fluorescence probe sequestration in the perinuclear region (see, e.g., FIG. 21; see also, e.g., G. J. Ding et al., Journal of Biological Chemistry 273, 28897 (1998); herein incorporated by reference in its entirety). Data was parametrized with a nested, two-compartment, transport model (see, e.g., W. E. Evans, J. J. Schentag and W. J. Jusko., Applied Pharmacokinetics: Principles of Therapeutic Drug Monitoring (Lippincott Williams & Wilkins, Vancouver, W.A., 1992); herein incorporated by reference in its entirety), using a statistical link function to relate the kinetic coefficient of variation (CV) of pixel intensities in the images with the concentration of probe in vesicles and cytoplasm. Optimal kinetic parameters fitting the experimental data for each probe to the system described by the two-compartment model and statistical link function were determined using the simulated annealing technique (see, e.g., M. Pincus., Oper. Res. 18, 1225 (1979); herein incorporated by reference in its entirety). The present invention is not limited to a particular mechanism. Indeed, an understanding of the mechanism is not necessary to practice the present invention.
To assess how well the model accounts for all the different kinetic traces acquired, a “PVE” (proportion of variance explained) by the model was calculated. The PVE is one minus the ratio of the sum of squared differences between observed and fitted values to the sum of squared differences between observed values and their mean. PVE values close to one indicate good fit to the nested two-compartment model. The average PVE across the probes was 0.92, with >50% of the probes yielded PVE values […]. The present invention is not limited to a particular mechanism. Indeed, an understanding of the mechanism is not necessary to practice the present invention.
Cell culture. HeLa cells were grown in RPMI+10% FCS in a 5% CO2 atmosphere at 37° C. and plated in 96-well plates at a density of 3000 cells/well 24 hours prior to the start of the experiment.
Kinetic Imaging. For influx experiments, cells on 96-well plates were switched to imaging media consisting of RPMI containing 1.0 mM Bromophenol Blue—a soluble, cell-impermeant chromophore used to suppress excitation and emission of extracellular (background) dye fluorescence-, 10 μM probe and 0.1 μM Hoescht 33258 to label the cell nuclei. Plates were then transferred to a KineticScan instrument (Cellomics, Inc., Pittsburgh, Pa.), which contains an environmentally controlled CO2/temperature/humidity chamber, and data was acquired with a 20× objective lens. Images acquisition began approximately 10 min after dye addition, using the Hoescht channel to acquire nuclear images and FITC channel to acquire the NBD image. Plate-scanning mode was used for scanning, in which the instrument builds time-stacks of images by scanning the plate multiple times, returning to the same site of the plate at every scan. For efflux experiments, dye-containing media was removed from the wells of the plate. The wells were washed twice with fresh RPMI medium, imaging media was added, and image acquisition restarted 7 min after the dye-containing media was removed. The last time points of the influx experiment served as the first time point of the efflux experiment. Plates were scanned for approximately two hours in the influx experiment and six hours for the efflux experiment, with each well imaged on average every 7 minutes. […]

| Structure (SMILES) | median Pap(cyto) (apparent partition coefficient between extracellular medium and cytosol) (HeLa cells) | median Pap(ves) (apparent partition coefficient between cytosol and intracellular vesicles, k(ves)in/k(ves)out) (HeLa cells) | other results |
| --- | --- | --- | --- |
| O=CC=Cc1ccccc1 [A group 35] |  |  | αi^mito (mitochondria): −1.8; estimated A group affinity coefficient ai (mitochondria): −1.8; αi^em [1]: −8.3 nm; αi^ex [1]: 0.0 nm |
| O=Cc1cccc([N+](=O)[O-])c1 [A group 21] |  |  | αi^mito (mitochondria): 0.8; estimated A group affinity coefficient ai (mitochondria): 0.8; influence of group on peak wavelength [1]: the far red shift is not observed; αi^em [1]: 21.6 nm; αi^ex [1]: −68.0 nm |
| O=Cc1ccccn1 [A group 40] |  |  | αi^em [1]: 64.8 nm; αi^ex [1]: −18.1 nm |
| O=Cc1ccccc1 [A group 2] |  |  | αi^mito (mitochondria): 5.0; estimated A group affinity coefficient ai (mitochondria): 5.0 |
| COc1cccc(CNc2nc(NCCCCCCNc3ccc([N+](=O)[O-])c4nonc34)nc(NC3CCC(C)CC3)n2)c1 (centres unmarked) [Compound B4] | 18.09 | 12.15 |  |
| COc1cccc(CNc2nc(NCCCCCCNc3ccc([N+](=O)[O-])c4nonc34)nc(NC3CCCCC3C)n2)c1OC (centres unmarked) [Compound H5] | 5.12 | 16.80 |  |
| Cc1ccc(CNc2nc(NCCCCCCNc3ccc([N+](=O)[O-])c4nonc34)nc(NC3CCC(C)CC3)n2)cc1 (centres unmarked) [Compound G4] | 23.97 | 4.01 |  |
| CC1CCCCC1Nc1nc(NCCCCCCNc2ccc([N+](=O)[O-])c3nonc23)nc(NCCC(c2ccccc2)c2ccccc2)n1 (centres unmarked) [Compound F5] | 6.71 | 21.53 |  |
| COc1cccc(CNc2nc(NCCCCCCNc3ccc([N+](=O)[O-])c4nonc34)nc(NC3CCCCC3)n2)c1 [Compound B7] | 12.22 | 11.80 |  |
| O=Cc1ccc2ccc3cccc4ccc1c2c34 [A group 41] |  |  | αi^em [1]: 46.9 nm; αi^ex [1]: 26.1 nm |
| COc1ccc(CCNc2nc(NCCCCCCNc3ccc([N+](=O)[O-])c4nonc34)nc(NCC3CCCCC3)n2)cc1 [Compound D6] | 141.76 | 0.24 |  |
| COc1ccc(CCNc2nc(NCCCCCCNc3ccc([N+](=O)[O-])c4nonc34)nc(NC3CCC(C)CC3)n2)cc1 (centres unmarked) [Compound D4] | 99.03 | 0.22 |  |
| COc1ccc(CCNc2nc(NCCCCCCNc3ccc([N+](=O)[O-])c4nonc34)nc(NCCC(C)C)n2)cc1 [Compound D8] | 236.99 | 0.24 |  |
| CC1CCCCC1Nc1nc(NCCCCCCNc2ccc([N+](=O)[O-])c3nonc23)nc(NCc2cccc(F)c2)n1 (centres unmarked) [Compound E5] | 5.98 | 29.55 |  |
| CC(C)Nc1nc(NCCCCCCNc2ccc([N+](=O)[O-])c3nonc23)nc(NCCC(c2ccccc2)c2ccccc2)n1 [Compound F2] | 79.42 | 0.34 |  |

Reference: US20070111251A1, “Chemical address tags” (priority 2003, published 2007)
